# Like-named read-outs stand apart in the source and are kept apart here.
# Key:
# [1] = test system: Reversed Passive Arthus reaction; assay: Reversed Passive Arthus reaction; type: in vivo, rat (Sprague-Dawley); conditions: oral, 6.25 mg/kg, one hour before antigen
# Experimental: Under ether anesthesia, the hair of the back of Sprague-Dawley male rats (7-week old, about 250 g body weight) was cut, and 0.5 ml of a 5% solution of gum arabia of a test compound relative to 100 g of the body weight of the animals was orally administered (one hour before injection of antigen). An antigen, egg albumin dissolved in physiological saline (5 mg/kg) was administered through the tail vein. Immediately, 0.1 ml each of a rabbit anti-egg albumin serum (containing 6 mg protein antibody/ml) was administered intracutaneously at one spot each of left- and right-hand sides of the back of rats. Three hours later, 1 ml of physiological saline containing 1% of Evans blue was given intravenously, and 30 minutes later, the skin of the animals was excised, and the area (mm^2) of blue spots was measured. The results were compared with those of the control group, and the inhibitory ratio was determined.
# [2] = test system: platelet aggregation (PAF); assay: Inhibitory action on PAF-induced rabbit platelet aggregation; type: cell-based; conditions: Oryctolagus cuniculus, read-out: inhibitory percentage (platelet aggregation)
# Procedure, shortened: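 Male rabbit citrated PRP, adjusted with PPP to about 500,000 platelets/μl, was stirred 2 min at 37 °C, then with test sample for 2 min before PAF addition. Aggregation was followed by aggregometry as maximum percent light transmission.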
# [3] = test system: PAF-induced hypotension; assay: Inhibitory action on PAF-induced hypotension in rats; type: in vivo, rat (Sprague-Dawley); conditions: Rattus norvegicus, read-out: Inhibitory Rate (Lowering of Blood Pressure); for inhibition in vivo at 0.01 mg/kg / inhibition in vivo at 0.03 mg/kg / inhibition in vivo at 0.1 mg/kg: iv; for inhibition in vivo at 1 mg/kg / inhibition in vivo at 3 mg/kg / inhibition in vivo at 10 mg/kg: oral
# Procedure, shortened: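 Male Sprague-Dawley rats of about 250 g had cannulas placed in the femoral artery, for blood pressure recording via a pressure transducer, and in the femoral vein, for drug dosing. The hypotensive response to intravenous PAF (1 μg/kg) was measured first. Test samples were then given intravenously or orally, and PAF was given again. Percent inhibition compares the PAF-induced pressure drop (Δ mmHg) after treatment with the drop before treatment.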
compound,measurement,setting,value
"CCC[n+]1cc(Br)cc(C(=O)N(CCOC(=O)NCCOC(=O)Nc2cccc3ccccc23)c2ccccc2)c1 [Production Example 10, 5-bromo-3-[N-[2-[2-(1-naphthylcarbamoyloxy)ethyl]carbamoyloxy]ethyl-N-phenyl]carbamoyl-1-propylpyridinium chloride]",preventive ratio,[1],57%
same,inhibition at 3 µM,[2]; 3 × 10^-6 M,100%
same,inhibition at 0.3 µM,[2]; 3 × 10^-7 M,91%
same,inhibition in vivo at 0.01 mg/kg,[3]; 1 hr.,65%
same,inhibition in vivo at 0.01 mg/kg,[3]; 2 hr.,60%
same,inhibition in vivo at 0.01 mg/kg,[3]; 4 hr.,53%
same,inhibition in vivo at 0.01 mg/kg,[3]; 6 hr.,47%
same,inhibition in vivo at 0.01 mg/kg,[3]; 8 hr.,36%
same,inhibition in vivo at 0.03 mg/kg,[3]; 1 hr.,97%
same,inhibition in vivo at 0.03 mg/kg,[3]; 2 hr.,84%
same,inhibition in vivo at 0.03 mg/kg,[3]; 4 hr.,65%
same,inhibition in vivo at 0.03 mg/kg,[3]; 6 hr.,55%
same,inhibition in vivo at 0.03 mg/kg,[3]; 8 hr.,47%
same,inhibition in vivo at 0.1 mg/kg,[3]; 1 hr.,100%
same,inhibition in vivo at 0.1 mg/kg,[3]; 2 hr.,94%
same,inhibition in vivo at 0.1 mg/kg,[3]; 4 hr.,89%
same,inhibition in vivo at 0.1 mg/kg,[3]; 6 hr.,81%
same,inhibition in vivo at 0.1 mg/kg,[3]; 8 hr.,76%
same,inhibition in vivo at 0.01 mg/kg,"[3]; 5 min, i.v., 5 min.",79%
same,inhibition in vivo at 0.03 mg/kg,"[3]; 5 min, i.v., 5 min.",100%
same,inhibition in vivo at 0.1 mg/kg,"[3]; 5 min, i.v., 5 min.",100%
same,inhibition in vivo at 1 mg/kg,[3]; 1 hr.,33%
same,inhibition in vivo at 1 mg/kg,[3]; 2 hr.,51%
same,inhibition in vivo at 1 mg/kg,[3]; 4 hr.,56%
same,inhibition in vivo at 1 mg/kg,[3]; 6 hr.,59%
same,inhibition in vivo at 1 mg/kg,[3]; 8 hr.,47%
same,inhibition in vivo at 3 mg/kg,[3]; 1 hr.,79%
same,inhibition in vivo at 3 mg/kg,[3]; 2 hr.,83%
same,inhibition in vivo at 3 mg/kg,[3]; 4 hr.,87%
same,inhibition in vivo at 3 mg/kg,[3]; 6 hr.,83%
same,inhibition in vivo at 3 mg/kg,[3]; 8 hr.,81%
same,inhibition in vivo at 10 mg/kg,[3]; 1 hr.,96%
same,inhibition in vivo at 10 mg/kg,[3]; 2 hr.,96%
same,inhibition in vivo at 10 mg/kg,[3]; 4 hr.,96%
same,inhibition in vivo at 10 mg/kg,[3]; 6 hr.,93%
same,inhibition in vivo at 10 mg/kg,[3]; 8 hr.,90%
